Patent US20120078527A1, “KIT AND METHOD FOR PREDICTING SENSITIVITY OF GASTRIC CANCER PATIENT TO ANTI-CANCER AGENT” (SAMSUNG ELECTRONICS CO., LTD., priority 2010, published 2012)

Tested on: advanced (terminal) gastric cancer patients
Assay: Change in tumor size after cisplatin-based chemotherapy in gastric cancer patients
Type: in vivo, human
Conditions: population of 151 advanced (terminal) gastric cancer patients; cisplatin-based chemotherapy per NCCN guidelines after palliative surgical resection; judged by changes in tumor size
Method: A population of 151 advanced (terminal) gastric cancer patients who were treated with cisplatin-based chemotherapy (in Samsung Medical Center, Seoul, Korea) after palliative surgical resection were selected to test for sensitivity to the anti-cancer agent. That is, the anti-cancer agent (cisplatin) was administered to the patients according to National Comprehensive Cancer Network (NCCN) guidelines, and changes in tumor size after the administration of the anti-cancer agent were measured to determine whether the anti-cancer therapy was effective. Then, the patients were grouped into two groups: one group of 103 patients for which the anti-cancer therapy was effective (responders), and the other group of 48 patients for which the anti-cancer therapy was not effective (nonresponders). In addition, to identify SNPs associated with response or nonresponse to the anti-cancer agent, DNA of each of the patients was extracted from gastric tumor tissue removed from the patient using QIAamp DNA Mini and blood Mini kits.

## N.N.[Cl][Pt][Cl] [cisplatin]
  patients for which the anti-cancer therapy was effective (responders): 103 patients
  patients for which the anti-cancer therapy was not effective (nonresponders): 48 patients
